In patent US20260373136A1, “A NOVEL DOSAGE REGIMEN USING LOW DOSES OF DONEPEZIL OR DERIVATIVE THEREOF FOR PREVENTING OR TREATING A COMPULSIVE DISORDER” (SORBONNE UNIVERSITE, priority 2022, published 2026):

Key:
Format in all cases: in vivo, human
[1] = Yale-Brown Obsessive Compulsive Scale questionnaire (Y-BOCS) before and after treatment; conditions: for OCD symptoms: Y-BOCS post vs pre-treatment; for Y-BOCS score, post treatment: 0-7 subclinical, 8-15 mild, 16-23 moderate, 24-31 severe, 32-40 extreme symptoms
Description: (§1) 6 anorexic patients were treated with donepezil: 5 of them with a daily dose according to the present invention and 1 with a higher dose (comparative).
(§2) The studies were led in hospital. Each case is presented below.
(§3) The treatment started with a daily dose of donepezil of 0.5 mg for 10 days then the daily dose was increased to 1 mg for 7 days then increased to 1.5 mg for 71 days (2 months and 10 days) then increased to 2 mg for 22 days and then increased to 2.5 mg and remains on this dose for 4 months and 18 days.
Patient #2 obsessive-compulsive disorders (OCD) symptoms have also been evaluated with the Yale-Brown Obsessive Compulsive Scale questionnaire (Y-BOCS) (available on https://pcl.psychiatry.uw.edu/wp-content/uploads/2021/12/YBOCS.pdf) before and after the treatment. The following scores have been obtained:
The score obtained with questionnaire Y-BOCS is classified as follows: • 0-7: subclinical; 8-15: mild symptoms; 16-23: moderate symptoms; 24-31: severe symptoms; 32-40: extreme symptoms
(§4) The treatment started with a daily dose of donepezil of 0.5 mg for 13 days then the daily dose was increased to 0.75 mg for 9 days then increased to 1 mg for 17 days and then increased to 1.5 mg and remained at this dosage for a month then stopped for two months and then restarted with a daily dose of 1.5 mg that remains within 1 month and then discontinued.
Patient #4 obsessive-compulsive disorders (OCD) symptoms have also been evaluated with questionnaire Y-BOCS-before and after the treatment. The following scores have been obtained:
(§5) The treatment started with a daily dose of donepezil of 0.5 mg for 8 days and then the daily dose was increased to 1 mg for 9 days and then increased to 1.67 mg for 62 days and then increased to 2.5 mg.
Patient #6 obsessive-compulsive disorders (OCD) symptoms have also been evaluated with questionnaire Y-BOCS-before and after the treatment.

[2] = Eating Disorder Examination Questionnaire (EDE-q) before and after treatment; parameters: scale not given here; conditions: >=4 clinical range, >2.8 possible clinically significant pathology
Description: as §1, §2, §4
The eating disorders of patient #4 before and after treatment have been evaluated with the Eating Disorder Examination Questionnaire (EDE-q) (available on https://www.corc.uk.net/outcome-experience-measures/eating-disorder-examination-questionnaire-ede-q/) which has given the following results:
as §5
The eating disorders of patient #6 before and after treatment have been evaluated with EDE-q questionnaire which has given the following results: […]

[3] = Body weight / BMI of anorexic patients treated with donepezil
Description: The term “Body Mass Index” (BMI) is calculated by dividing the body mass of an individual (in kg) by his height (in […]). The BMI is generally used to evaluate if an individual suffers from under nutrition or on the contrary if he/she suffers from overweight or obesity.
as §1, §2
Patient #2 is a person who developed anorexia nervosa restricting type in adolescence. They were very restricted in the types of food they ate and could not eat food that was processed or high in sugar or fats. They exercised 3-4 hours a day. They were unable to reduce their exercising even minimally […] becoming flooded with debilitating anxiety. They were unable to eat enough to maintain a healthy weight. Their BMI was 18.5 kg/m^2 and was medically stable when they started donepezil.
as §3, §4
A patient who has suffered from anorexia nervosa during their second pregnancy. They have been vigilant about their caloric intake and body image since their adolescence. […] The symptomatology is dominated by qualitative and quantitative food restriction and physical hyperactivity. […] Neurocognitive executive functions are preserved, there is a high tolerance of delayed reward measured by Delay Discounting Task. […]

[4] = Patient #6, daily dose 0.5 mg to 2.5 mg, pre-treatment 3.8

## COc1cc2c(cc1OC)C(=O)C(CC1CCN(Cc3ccccc3)CC1)C2 (stereo not shown) [donepezil]
[1]; Patient #2, daily dose 0.5-2.5 mg
  OCD symptoms: diminution of OCD symptoms
[1]; Patient #2, daily dose 0.5-2.5 mg, pre-treatment score 32
  Y-BOCS score, post treatment: 22
[1]; Patient #4, daily dose 0.5 to 1.5 mg
  OCD symptoms: diminution of OCD symptoms
[1]; Patient #4, daily dose 0.5 to 1.5 mg, pre-treatment score 28
  Y-BOCS score, post treatment: 16
[1]; Patient #6, daily dose 0.5 mg to 2.5 mg
  OCD symptoms: diminution of OCD symptoms
[1]; Patient #6, daily dose 0.5 mg to 2.5 mg, pre-treatment score 28
  Y-BOCS score, post treatment: 17
[2]; Patient #4, daily dose 0.5 to 1.5 mg, pre-treatment 4
  EDE-q Restraint score, post treatment: 2
[2]; Patient #4, daily dose 0.5 to 1.5 mg, pre-treatment 4.6
  EDE-q Eating concerns score, post treatment: 2.2
[2]; Patient #4, daily dose 0.5 to 1.5 mg, pre-treatment 4.9
  EDE-q Global scores, post treatment: 3.0
[2]; Patient #4, daily dose 0.5 to 1.5 mg, pre-treatment 5.4
  EDE-q Weight concerns score, post treatment: 3.4
[2]; Patient #4, daily dose 0.5 to 1.5 mg, pre-treatment 5.8
  EDE-q Shape concerns score, post treatment: 4.4
[2]; Patient #6, daily dose 0.5 mg to 2.5 mg, pre-treatment 0.6
  EDE-q Eating concerns score, post treatment: 0.4
[2]; Patient #6, daily dose 0.5 mg to 2.5 mg, pre-treatment 3.4
  EDE-q Global scores, post treatment: 2.6
[2]; [4]
  EDE-q Restraint score, post treatment: 2.8
  EDE-q Weight concerns score, post treatment: 3.2
[2]; Patient #6, daily dose 0.5 mg to 2.5 mg, pre-treatment 5.4
  EDE-q Shape concerns score, post treatment: 4.1
[3]; Patient #2, daily dose 0.5-2.5 mg, over the next 5 months, BMI 18.5 kg/m^2 at start, maintained
  BMI: over 20 kg/m^2
[3]; Patient #4, daily dose 1.5 mg, within a month, BMI plateaued after rise to 15 kg/m^2 before treatment
  BMI: 15.6 kg/m^2
[3]; Patient #5, 2.5 mg per day for 2 months, from 27 kg, in 3 months
  body weight: 36 kg
